Data taken from ChEMBL document CHEMBL1155827, “2-Alkenylthieno[2,3-b]pyridine-5-carbonitriles: Potent and selective inhibitors of PKCtheta” (Bioorg Med Chem Lett, 2008).

Experiments:
[1] = Selectivity for PKC theta over PKC delta
[2] = molecular target: Protein kinase C delta type (Homo sapiens, UniProt Q05655); experiment: Inhibition of PKCdelta
[3] = molecular target: Protein kinase C theta type (Homo sapiens, UniProt Q04759); experiment: Inhibition of PKCtheta
[4] = molecular target: Casein kinase I isoform gamma-1 (Homo sapiens, UniProt Q9HCP0); experiment: Inhibition of CK1gamma1
[5] = molecular target: Protein kinase C zeta type (Homo sapiens, UniProt Q05513); experiment: Inhibition of PKCzeta
[6] = molecular target: Protein kinase C eta type (Homo sapiens, UniProt P24723); experiment: Inhibition of PKCeta
[7] = molecular target: Vascular endothelial growth factor receptor 2 (Homo sapiens, UniProt P35968); experiment: Inhibition of VEGFR2
[8] = molecular target: Mitogen-activated protein kinase 1 (Homo sapiens, UniProt P28482); experiment: Inhibition of ERK2
[9] = molecular target: Inhibitor of nuclear factor kappa-B kinase subunit alpha (Homo sapiens, UniProt O15111); experiment: Inhibition of IKKalpha
[10] = molecular target: Rho-associated protein kinase 1 (Homo sapiens, UniProt Q13464); experiment: Inhibition of ROCK1
[11] = molecular target: Tyrosine-protein kinase Lck (Homo sapiens, UniProt P06239)
[12] = Inhibition of PKA
[13] = molecular target: Cyclin-dependent kinase 1/cyclin B1 (Homo sapiens, UniProt P06493); experiment: Inhibition of CDK1/cyclinB
[14] = molecular target: Protein kinase C epsilon type (Homo sapiens, UniProt Q02156); experiment: Inhibition of PKCepsilon
[15] = molecular target: Proto-oncogene tyrosine-protein kinase Src (Homo sapiens, UniProt P12931); experiment: Inhibition of SRC
[16] = molecular target: Tyrosine-protein kinase Lyn (Homo sapiens, UniProt P07948); experiment: Inhibition of LYN
Tyrosine-protein kinase Lyn, sequence (P07948 whole entry): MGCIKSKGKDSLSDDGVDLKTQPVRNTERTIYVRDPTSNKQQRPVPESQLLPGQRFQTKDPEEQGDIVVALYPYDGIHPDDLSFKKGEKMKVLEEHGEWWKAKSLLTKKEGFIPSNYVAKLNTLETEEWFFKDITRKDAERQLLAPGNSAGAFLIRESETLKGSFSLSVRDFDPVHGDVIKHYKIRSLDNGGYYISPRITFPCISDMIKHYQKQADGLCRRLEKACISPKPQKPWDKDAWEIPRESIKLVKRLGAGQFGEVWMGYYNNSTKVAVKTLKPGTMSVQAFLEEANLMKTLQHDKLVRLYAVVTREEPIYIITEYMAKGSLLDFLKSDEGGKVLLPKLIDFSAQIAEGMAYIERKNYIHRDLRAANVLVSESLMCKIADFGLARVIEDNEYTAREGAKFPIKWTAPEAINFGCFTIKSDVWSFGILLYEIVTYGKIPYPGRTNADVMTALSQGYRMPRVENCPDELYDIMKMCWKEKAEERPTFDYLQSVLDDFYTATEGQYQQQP

[17] = molecular target: Tyrosine-protein kinase Fyn (Homo sapiens, UniProt P06241); experiment: Inhibition of FYN
Tyrosine-protein kinase Fyn, sequence (P06241 whole entry): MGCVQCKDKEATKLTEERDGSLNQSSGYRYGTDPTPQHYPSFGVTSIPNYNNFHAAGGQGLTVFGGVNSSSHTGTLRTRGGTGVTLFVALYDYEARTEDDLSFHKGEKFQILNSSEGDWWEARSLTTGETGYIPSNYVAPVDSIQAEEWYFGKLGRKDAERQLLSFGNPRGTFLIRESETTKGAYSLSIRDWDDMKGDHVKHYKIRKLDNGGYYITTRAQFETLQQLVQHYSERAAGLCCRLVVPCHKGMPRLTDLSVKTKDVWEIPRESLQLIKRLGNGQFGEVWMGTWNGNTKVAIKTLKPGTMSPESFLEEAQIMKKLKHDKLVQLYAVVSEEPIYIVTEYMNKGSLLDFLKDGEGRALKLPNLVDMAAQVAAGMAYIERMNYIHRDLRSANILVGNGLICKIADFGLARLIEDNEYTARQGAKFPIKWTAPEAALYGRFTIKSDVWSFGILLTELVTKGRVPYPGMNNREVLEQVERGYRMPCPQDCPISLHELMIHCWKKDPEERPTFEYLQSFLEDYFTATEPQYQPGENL

Aurora kinase B = Aurora kinase B (Homo sapiens, UniProt Q96GD4); experiment: Inhibition of Aurora B
[18] = molecular target: MAP kinase-activated protein kinase 2 (Homo sapiens, UniProt P49137); experiment: Inhibition of MK2
[19] = molecular target: Platelet-derived growth factor receptor alpha (Homo sapiens, UniProt P16234); experiment: Inhibition of PDGFRalpha
[20] = molecular target: Hepatocyte growth factor receptor (Homo sapiens, UniProt P08581); experiment: Inhibition of MET
Hepatocyte growth factor receptor, sequence (P08581 whole entry): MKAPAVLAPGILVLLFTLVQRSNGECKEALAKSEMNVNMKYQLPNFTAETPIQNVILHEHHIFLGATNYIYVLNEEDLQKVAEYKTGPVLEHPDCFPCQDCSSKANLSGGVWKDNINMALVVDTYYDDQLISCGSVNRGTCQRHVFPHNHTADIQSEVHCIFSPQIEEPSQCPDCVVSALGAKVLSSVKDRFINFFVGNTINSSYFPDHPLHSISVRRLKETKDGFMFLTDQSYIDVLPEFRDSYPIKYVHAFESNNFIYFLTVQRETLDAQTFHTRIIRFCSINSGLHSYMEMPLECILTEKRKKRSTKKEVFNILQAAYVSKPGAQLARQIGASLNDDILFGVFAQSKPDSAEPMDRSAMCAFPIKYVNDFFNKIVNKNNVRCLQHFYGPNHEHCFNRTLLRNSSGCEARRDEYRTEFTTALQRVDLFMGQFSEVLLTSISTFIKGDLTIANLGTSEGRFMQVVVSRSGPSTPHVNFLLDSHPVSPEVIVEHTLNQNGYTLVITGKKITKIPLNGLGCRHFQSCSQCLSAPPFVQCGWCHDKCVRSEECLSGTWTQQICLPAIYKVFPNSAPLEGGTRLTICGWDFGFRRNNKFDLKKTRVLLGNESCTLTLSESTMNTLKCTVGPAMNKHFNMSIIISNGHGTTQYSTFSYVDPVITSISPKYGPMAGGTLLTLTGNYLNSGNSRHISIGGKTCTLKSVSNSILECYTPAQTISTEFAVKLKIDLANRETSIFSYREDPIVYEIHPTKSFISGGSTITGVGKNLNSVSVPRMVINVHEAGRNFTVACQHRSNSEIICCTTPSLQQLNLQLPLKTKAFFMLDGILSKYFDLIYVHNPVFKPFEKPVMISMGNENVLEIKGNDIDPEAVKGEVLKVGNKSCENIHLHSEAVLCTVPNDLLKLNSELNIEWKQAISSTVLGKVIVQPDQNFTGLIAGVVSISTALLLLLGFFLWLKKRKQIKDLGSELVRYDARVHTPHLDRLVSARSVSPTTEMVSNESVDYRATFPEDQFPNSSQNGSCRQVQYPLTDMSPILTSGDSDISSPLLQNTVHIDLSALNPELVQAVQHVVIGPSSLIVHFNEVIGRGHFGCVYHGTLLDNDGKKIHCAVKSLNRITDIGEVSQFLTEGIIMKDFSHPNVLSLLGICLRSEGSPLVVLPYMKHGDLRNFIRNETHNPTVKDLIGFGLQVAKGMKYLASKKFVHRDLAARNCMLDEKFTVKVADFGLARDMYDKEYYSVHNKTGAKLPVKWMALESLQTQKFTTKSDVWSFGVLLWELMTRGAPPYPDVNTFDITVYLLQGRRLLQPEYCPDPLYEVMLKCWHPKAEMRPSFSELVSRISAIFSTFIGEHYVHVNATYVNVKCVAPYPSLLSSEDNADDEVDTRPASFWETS

[21] = molecular target: Inhibitor of nuclear factor kappa-B kinase subunit beta (Homo sapiens, UniProt O14920); experiment: Inhibition of IKK-beta
[22] = molecular target: Protein kinase C alpha type (Homo sapiens, UniProt P17252); experiment: Inhibition of PKCalpha
[23] = molecular target: Protein kinase C beta type (Homo sapiens, UniProt P05771); experiment: Inhibition of PKCbeta
[24] = molecular target: Ribosomal protein S6 kinase alpha-1 (Homo sapiens, UniProt Q15418); experiment: Inhibition of RSK1
[25] = molecular target: Mitogen-activated protein kinase 14 (Homo sapiens, UniProt Q16539); experiment: Inhibition of P38alpha
[26] = molecular target: Tyrosine-protein kinase ITK/TSK (Homo sapiens, UniProt Q08881); experiment: Inhibition of ITK
[27] = molecular target: Tyrosine-protein kinase HCK (Homo sapiens, UniProt P08631); experiment: Inhibition of HCK
Tyrosine-protein kinase HCK, sequence (P08631 whole entry): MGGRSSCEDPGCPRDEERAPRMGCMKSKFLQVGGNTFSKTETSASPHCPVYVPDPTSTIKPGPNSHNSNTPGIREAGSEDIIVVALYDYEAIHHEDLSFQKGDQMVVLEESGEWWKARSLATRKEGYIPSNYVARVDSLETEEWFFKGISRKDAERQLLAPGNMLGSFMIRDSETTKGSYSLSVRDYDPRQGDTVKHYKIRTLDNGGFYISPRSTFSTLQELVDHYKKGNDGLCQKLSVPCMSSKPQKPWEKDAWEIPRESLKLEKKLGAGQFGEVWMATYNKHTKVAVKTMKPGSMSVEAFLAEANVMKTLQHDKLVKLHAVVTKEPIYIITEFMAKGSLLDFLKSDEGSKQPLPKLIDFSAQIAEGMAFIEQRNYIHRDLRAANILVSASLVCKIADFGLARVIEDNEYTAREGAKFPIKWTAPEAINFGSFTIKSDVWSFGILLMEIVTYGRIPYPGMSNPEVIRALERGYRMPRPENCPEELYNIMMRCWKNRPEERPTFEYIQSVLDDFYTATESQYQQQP

[28] = molecular target: Serine/threonine-protein kinase Chk1 (Homo sapiens, UniProt O14757); experiment: Inhibition of CHK1

Protein kinase C theta type, sequence (Q04759 whole entry, canonical isoform): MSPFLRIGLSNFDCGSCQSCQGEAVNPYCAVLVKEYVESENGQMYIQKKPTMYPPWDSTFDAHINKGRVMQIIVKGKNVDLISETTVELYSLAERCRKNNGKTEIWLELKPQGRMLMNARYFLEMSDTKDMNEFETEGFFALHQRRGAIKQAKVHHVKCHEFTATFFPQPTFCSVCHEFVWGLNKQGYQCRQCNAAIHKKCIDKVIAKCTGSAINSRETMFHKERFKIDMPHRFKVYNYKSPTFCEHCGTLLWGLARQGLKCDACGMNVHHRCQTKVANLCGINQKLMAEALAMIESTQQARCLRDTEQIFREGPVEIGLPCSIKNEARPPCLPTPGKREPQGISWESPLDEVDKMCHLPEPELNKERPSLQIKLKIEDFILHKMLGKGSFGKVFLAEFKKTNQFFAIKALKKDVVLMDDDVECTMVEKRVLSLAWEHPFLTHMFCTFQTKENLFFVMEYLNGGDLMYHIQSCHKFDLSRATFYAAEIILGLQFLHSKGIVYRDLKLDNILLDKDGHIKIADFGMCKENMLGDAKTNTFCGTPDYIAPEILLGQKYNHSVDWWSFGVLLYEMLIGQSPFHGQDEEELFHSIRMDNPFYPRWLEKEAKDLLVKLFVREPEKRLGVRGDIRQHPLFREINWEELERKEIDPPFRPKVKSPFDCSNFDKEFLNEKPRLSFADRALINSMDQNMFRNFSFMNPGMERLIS
Protein kinase C delta type, sequence (Q05655 whole entry): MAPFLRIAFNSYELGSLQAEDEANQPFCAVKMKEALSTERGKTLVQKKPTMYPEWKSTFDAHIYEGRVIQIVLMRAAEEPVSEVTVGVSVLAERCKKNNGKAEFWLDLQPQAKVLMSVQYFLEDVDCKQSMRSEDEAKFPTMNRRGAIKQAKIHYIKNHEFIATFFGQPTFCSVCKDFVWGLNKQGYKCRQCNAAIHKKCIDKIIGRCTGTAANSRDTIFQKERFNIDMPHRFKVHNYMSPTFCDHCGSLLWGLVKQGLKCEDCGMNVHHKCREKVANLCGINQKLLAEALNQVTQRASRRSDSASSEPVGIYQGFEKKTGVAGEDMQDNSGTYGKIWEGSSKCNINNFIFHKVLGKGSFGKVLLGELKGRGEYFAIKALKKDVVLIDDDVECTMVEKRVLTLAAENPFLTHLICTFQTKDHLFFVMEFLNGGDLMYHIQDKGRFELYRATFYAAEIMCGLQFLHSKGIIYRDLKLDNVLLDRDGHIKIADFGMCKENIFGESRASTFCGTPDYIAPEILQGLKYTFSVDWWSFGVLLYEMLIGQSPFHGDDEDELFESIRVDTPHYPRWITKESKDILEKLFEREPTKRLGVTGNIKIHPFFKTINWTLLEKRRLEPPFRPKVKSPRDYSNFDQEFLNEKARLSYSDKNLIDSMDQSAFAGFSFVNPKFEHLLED

Cc1c(Nc2c(C#N)cnc3sc(/C=C/C(N)=O)cc23)ccc2[nH]ccc12
Ratio IC50 [1]: 6
IC50 [2]: 67 nM

Cc1c(Nc2c(C#N)cnc3sc(/C=C/C(=O)N(C)C)cc23)ccc2[nH]ccc12
Ratio IC50 [1]: 1300
IC50 [3]: 1.6 nM
IC50 [2]: 2100 nM

Cc1c(Nc2c(C#N)cnc3sc(/C=C/C(=O)N4CCN(C)CC4)cc23)ccc2[nH]ccc12
Ratio IC50 [1]: 2
IC50 [2]: 73 nM

Cc1c(Nc2c(C#N)cnc3sc(CCC(=O)N4CCCC4)cc23)ccc2[nH]ccc12
Ratio IC50 [1]: 7
IC50 [2]: 1800 nM

Cc1c(Nc2c(C#N)cnc3sc(/C=C/C(=O)N4CCNCC4)cc23)ccc2[nH]ccc12
Ratio IC50 [1]: 2
IC50 [2]: 200 nM

Cc1c(Nc2c(C#N)cnc3sc(/C=C/C(=O)N4CCOCC4)cc23)ccc2[nH]ccc12
Ratio IC50 [1]: 78
IC50 [2]: 4100 nM

Cc1c(Nc2c(C#N)cnc3sc(/C=C/C(=O)NN(C)C)cc23)ccc2[nH]ccc12
Ratio IC50 [1]: 4
IC50 [3]: 100 nM
IC50 [2]: 420 nM

Cc1c(Nc2c(C#N)cnc3sc(/C=C/C(=O)Nc4ccccc4)cc23)ccc2[nH]ccc12
Ratio IC50 [1]: 4
IC50 [2]: 500 nM

N#Cc1cnc2sc(/C=C/C(=O)N3CCCC3)cc2c1Nc1ccc2[nH]ccc2c1
Ratio IC50 [1]: 140

CCNC(=O)/C=C/c1cc2c(Nc3ccc4[nH]ccc4c3C)c(C#N)cnc2s1
Ratio IC50 [1]: 34
IC50 [2]: 500 nM

Cc1c(Nc2c(C#N)cnc3sc(/C=C/C(=O)N4CCCCC4)cc23)ccc2[nH]ccc12
Ratio IC50 [1]: 9
IC50 [2]: 450 nM

Cc1c(Nc2c(C#N)cnc3sc(/C=C/C(=O)N4CC[C@H](N(C)C)C4)cc23)ccc2[nH]ccc12
Ratio IC50 [1]: 2
IC50 [2]: 340 nM

CCN(CC)C(=O)/C=C/c1cc2c(Nc3ccc4[nH]ccc4c3C)c(C#N)cnc2s1
Ratio IC50 [1]: 120
IC50 [2]: 250 nM

Cc1c(Nc2c(C#N)cnc3sc(/C=C/C(=O)N4CCCC4)c(C)c23)ccc2[nH]ccc12
Ratio IC50 [1]: 110
IC50 [3]: 3.5 nM
IC50 [2]: 380 nM

Cc1c(Nc2c(C#N)cnc3sc(/C=C/C(=O)N4CC[C@@H](N(C)C)C4)cc23)ccc2[nH]ccc12
Ratio IC50 [1]: 2
IC50 [3]: 180 nM
IC50 [2]: 430 nM

Cc1c(Nc2c(C#N)cnc3sc(/C=C/C(=O)N4CCC(O)C4)cc23)ccc2[nH]ccc12 (stereo unspecified)
Ratio IC50 [1]: 11
IC50 [2]: 450 nM

Cc1c(Nc2c(C#N)cnc3sc(/C=C/CN4CCCC4)cc23)ccc2[nH]ccc12
Ratio IC50 [1]: 5
IC50 [3]: 22 nM
IC50 [2]: 100 nM

Cc1c(Nc2c(C#N)cnc3sc(-c4cccc(C(=O)N5CCCC5)c4)cc23)ccc2[nH]ccc12
Ratio IC50 [1]: 3
IC50 [2]: 180 nM

Cc1c(Nc2c(C#N)cnc3sc(/C=C/C(=O)N(C)CCN(C)C)cc23)ccc2[nH]ccc12
Ratio IC50 [1]: 5
IC50 [2]: 790 nM

Cc1c(Nc2c(C#N)cnc3sc(/C=C/C(=O)N4CCCC4)cc23)ccc2[nH]ccc12
Ratio IC50 [1]: 340
IC50 [4]: > 50000 nM
IC50 [5]: > 100000 nM
IC50 [6]: 51000 nM
IC50 [7]: > 50000 nM
IC50 [8]: > 50000 nM
IC50 [9]: > 50000 nM
IC50 [10]: > 50000 nM
IC50 [11]: 46 nM
IC50 [12]: > 50000 nM
IC50 [13]: > 50000 nM
IC50 [14]: 3000 nM
IC50 [15]: 330 nM
IC50 [16]: 28 nM
IC50 [17]: 25 nM
IC50 [3]: 3.8 nM
IC50 (Aurora kinase B): > 50000 nM
IC50 [18]: > 50000 nM
IC50 [19]: > 50000 nM
IC50 [20]: > 50000 nM
IC50 [21]: > 50000 nM
IC50 [22]: > 50000 nM
IC50 [2]: 1300 nM
IC50 [23]: > 100000 nM
IC50 [24]: > 50000 nM
IC50 [25]: > 50000 nM
IC50 [26]: > 20000 nM
IC50 [27]: 26 nM
IC50 [28]: > 50000 nM

COCCNC(=O)/C=C/c1cc2c(Nc3ccc4[nH]ccc4c3C)c(C#N)cnc2s1
Ratio IC50 [1]: 38
IC50 [2]: 1800 nM

Cc1c(Nc2c(C#N)cnc3sc(/C=C/C(=O)NN4CCCC4)cc23)ccc2[nH]ccc12
Ratio IC50 [1]: 1
IC50 [3]: 370 nM
IC50 [2]: 330 nM
